Experimental data as given in PubChem BioAssay AID1241 (SRMLSC, 2008).

Assay: NF-kB promoter reporter activators, neuronal cells, dose response, cell-based, SH-SY5Y, luciferase (AID 1241)
Details: fold induction; call rule not given here

EC50, active:
Cc1ccnc(NS(=O)(=O)c2ccc(NC(=O)c3ccc([N+](=O)[O-])s3)cc2)n1 5.77 µM, Cc1ccc(NC(=O)c2ccc3ccccc3n2)nc1 4.11 µM, Nc1nn(-c2cccc(F)n2)cc1-c1ccccc1 26 µM, CCCCc1ccc(-c2nc(-c3ccncc3)no2)cc1 4.14 µM, O=C(/C=C/Nc1ccccc1F)c1cccs1 0.413 µM, Cc1cccnc1Nc1nc(-c2ccc(O)cc2)cs1 8.13 µM, COc1ccc(/C=C/c2nc3ccccc3n2Cc2ccccc2OC)cc1 4.98 µM, COc1ccc(-c2cc(-c3ccccc3O)[nH]n2)cc1 0.968 µM, O=C(OCC(=O)c1c[nH]c2ccccc12)c1cccc(O)c1 14.6 µM, CC(C)Oc1ccc(C(=O)NC2=NCCS2)cc1 1.87 µM, Cc1ccc(-c2nc3ccccc3[nH]2)cc1N 3.41 µM, O=C(C=C1SCCS1)/C=C/c1ccco1 0.781 µM, COc1ccc(/C=N/Nc2ncccc2[N+](=O)[O-])c(OC)c1 3.35 µM, COc1ccc(-n2ncc3c(NCC(C)C)ncnc32)cc1 1.19 µM, CCc1ccc(C(=O)/C=C/c2cnn(C)c2C)s1 7.9 µM, CCOC(=O)c1cnc(SCc2ccccc2)nc1N 8.92 µM, O=C(Nc1ccc2c(c1)OCO2)c1ccc(Cl)s1 1.8 µM, O=C(Nc1ccc(N2CCOCC2)c(Cl)c1)c1cccc(F)c1 8.6 µM, COc1ccccc1-c1nc(-c2ccc(Br)o2)no1 1.04 µM, CCOC(=O)c1cnc2c(-c3ccccc3)cnn2c1C 7.52 µM, COc1cc(/C=N/O)ccc1OCc1ccccc1Cl 12.1 µM, COC(=O)c1ccc(-c2ccc(Cl)cc2)nc1C 4.44 µM, Cc1ccc(OCC(=O)Nc2ccccc2[N+](=O)[O-])c(Br)c1 9.49 µM, CCC(C)c1ccc(NC(=O)c2cccs2)cc1 (stereo unspecified) 0.734 µM, COc1cccc(C(=O)/C=C/Nc2cc(C)ccc2O)c1 5.51 µM, Cc1ccc(/C=C/C(=O)NC2=NCCS2)cc1 4.32 µM, COc1ccc(Nc2nc(-c3cccs3)cs2)c(OC)c1 2.33 µM, COc1ccc(C(=O)/C=C/c2cn(CN3CCN(C)CC3)c3ccccc23)cc1 1.02 µM, COc1ccc(-c2csc(Nc3ncccc3C)n2)cc1 1.65 µM, C=CCN=c1scc(-c2ccccc2)n1/N=C/c1ccccn1 1.46 µM, O=C(O)c1ccc2nc(-c3ccccc3)sc2c1 1.84 µM, Fc1ccc(-c2cnn3c(-c4cccs4)ccnc23)cc1 0.532 µM, Fc1ccccc1OCCSc1nnnn1-c1ccccc1 1.24 µM, O=C(N=Nc1c(O)[nH]c2ccccc12)c1cccs1 1.48 µM, Cc1ccccc1OCC(=O)Nc1cccc(C(=O)O)c1 4.05 µM, COc1ccc2c(c1)CC/C(=C/c1ccco1)C2=O 1.73 µM, CCCCCc1ccc(-c2ccc(C(=O)O)cc2)nc1 1.41 µM, COc1ccc2c(c1)CC/C2=N\OC(=O)c1cccc(C)c1 2.06 µM, O=C(NC1=NCCS1)c1csc2ccccc12 17.3 µM, Cc1cc(C(=O)Nc2cccc(C(=O)O)c2)oc1C 29.8 µM, CN(C)c1ccc(C(=O)c2ccc(N(C)C)c3ccccc23)cc1 0.221 µM, CCN(CC)c1ccc(N=Nc2nn(C)c(C)c2[N+](=O)[O-])cc1 8.19 µM, Cc1ccnc(NC(=O)/C=C/c2ccccc2[N+](=O)[O-])c1 0.557 µM, CC(C)(C)C(=O)Nc1nc(-c2ccccc2)ns1 2.73 µM, COc1ccc2nc(NC(=S)N(C)C)sc2c1 24.8 µM, C(=N\Nc1nc2ccccc2s1)/c1cccs1 0.887 µM, CC(=Nc1ccc(O)cc1)c1sc2ccccc2c1O 2.16 µM, Cc1ccsc1/C=N/Nc1nc2ccccc2s1 0.803 µM, O=C(Nc1ccc(OC(F)F)c(Cl)c1)c1ccccn1 6.28 µM, CC(=O)Nc1cccc(-c2csc(Nc3ccc(Cl)cn3)n2)c1 2.2 µM, O=C(Nc1ccccc1)c1ccc2ccccc2n1 5.81 µM, CCOC(=O)c1ccc(Nc2ncccc2[N+](=O)[O-])cc1 2.83 µM, COc1cccc(-c2nc3ccccc3s2)c1 10.9 µM, Cc1cccc(-c2cc3c(nn2)-c2ccccc2C3=O)c1 2.6 µM, c1ccc(-c2cnc(-c3ccccc3)nc2)cc1 0.868 µM, CC(C)(C)c1ccc(C(=O)Nc2cnccn2)cc1 1.12 µM, CCOc1ccc2nc(NC(=S)N(C)C)sc2c1 17.3 µM, Cc1occc1C(=O)Nc1cccc2ccccc12 4.62 µM, Cn1cccc1/C=C1\CCC/C(=C\c2cccn2C)C1=O 8.63 µM, O=C(CCCc1ccccc1)N1CCc2ccccc21 2.57 µM, COc1ccc(C(=O)Nc2cccc(C)c2)cc1 6.19 µM, Cc1cccc(-n2ncc3c(NC4CCCCC4)ncnc32)c1 2.33 µM, NC(=O)c1ccccc1N/C=C/C(=O)c1cccs1 4.95 µM, Nc1cccn2c(-c3ccc(Cl)c(Cl)c3)cnc12 2.68 µM, Cc1ccc(C)c(NC(=O)c2ccc3ccccc3n2)c1 1.89 µM, CCCCCCOc1ccc(OC(=O)c2cccnc2)cc1 0.189 µM, Clc1c(CSc2nc3ccccc3o2)nc2sccn12 2.41 µM, O=C(CCCc1ccccc1)Nc1ccc2c(c1)OCCO2 1.5 µM, Cn1c(C(=O)Nc2ccc3c(c2)OCO3)cc2sccc21 5.24 µM, COc1cccc(-c2noc(-c3ccc4c(c3)OCO4)n2)c1 0.506 µM, CCN(CC)c1ccc(NC(=O)c2ccc(Br)o2)cc1 23.9 µM, Cc1cc(N)n2nc(-c3ccccc3)cc2n1 10 µM, Cc1cccnc1Nc1nc(-c2ccccn2)cs1 0.16 µM, Cc1ccc(NC(=S)N2CCC(c3ccccc3)C2)c(Cl)c1 (stereo unspecified) 1.79 µM, Cc1ccc(N=Nc2c(N)nn(-c3ccccc3)c2N)cc1 10 µM, COc1ccc2nc(NC(=O)c3ccoc3C)sc2c1 3.99 µM, CC(C)c1ccc(/C=C/C(=O)Nc2nncs2)cc1 4.5 µM, Oc1ccccc1-c1cc(-c2ccccc2Cl)[nH]n1 1.24 µM, O=C(Nc1ccc(Cl)cc1)c1ccc2c(c1)OCO2 2.75 µM, Cc1ccc(C(=O)Nc2nnc(SCC(=O)N3CCCc4ccccc43)s2)cc1 1.66 µM, N#CC1=C2SC=C(c3ccc(Br)cc3)N2CCCC1=O 19.4 µM, COc1ccc(C(=O)Nc2ccc3c(c2)OCCO3)cc1 1.35 µM, Cc1ccc(/C=N/Nc2cccc(C(=O)O)c2)s1 2.12 µM, COC(=O)CSc1nc2cc(C)ccc2cc1C#N 6.53 µM, Nc1nc(-c2ccc(-c3ccccc3)cc2)cs1 2.42 µM, O=C(Nc1ccc2c(c1)OCO2)c1noc2c1CCCCC2 1.13 µM, C=CCNc1nc(-c2ccc(Cl)cc2)cs1 11.1 µM, CSc1ccc(/C=N/Nc2ccc(Cl)c(C(=O)O)c2)cc1 5.91 µM, Cc1ccc(Nc2nc(-c3ccc(O)cc3O)cs2)nc1 1.89 µM, COc1cccc(/C=C/C(=O)Nc2ccc3c(c2)OCCO3)c1 3.94 µM, COc1ccc(-c2cn3ccsc3n2)cc1 12.5 µM, O=C(CSc1nnnn1-c1ccccc1)Nc1nsc(-c2ccccc2)n1 14.2 µM, COc1ccc(-c2nc3ccc([N+](=O)[O-])cc3[nH]2)cc1 1.66 µM, Nc1ccc(-c2nc3cc(N)ccc3s2)cc1 1.1 µM, Cc1ccc(Nc2nc(C3CC3)cs2)cc1 1.82 µM, Cc1csc(SCc2nnc(-c3ccccc3Br)o2)n1 4.69 µM, CCN(CC)c1ccc(NC(=O)c2ccco2)cc1 2.5 µM, CCOC(=O)CSc1nc2cc(C)ccc2cc1C#N 1.1 µM, O=C(Nc1ccccc1)Nc1nc2ccccc2s1 27.2 µM, Cc1ccc(C(=O)c2sc3nsc(C)c3c2N)cc1 2 µM, O=C(/C=C/Nc1ccc(F)c(F)c1)c1cccs1 0.963 µM, CCNC(=S)NNC(=O)c1cc(-c2ccc(OCC)cc2)nc2ccccc12 1.08 µM, Fc1ccccc1Nc1nc2c(s1)CCc1ccccc1-2 3.36 µM, O=C(/C=C/Nc1ccc(F)c(F)c1)c1ccc(Br)cc1 3.91 µM, CN(c1ccc(O)cc1)c1nc(-c2cccs2)cs1 3.86 µM, COc1ccc(NC(=O)c2csc3c2CCCC3)cc1 16.7 µM, S=C(c1ccc(-c2ccc(Cl)c(Cl)c2)o1)N1CCOCC1 5.19 µM, CCOc1cc(/C=N/Nc2cccc(C(=O)O)c2)ccc1OC(=O)c1ccccc1 4 µM, Cc1ccsc1/C=C1\CCC(C2CCCC2)C1=O (stereo unspecified) 5.84 µM, O=[N+]([O-])c1ccc(C2Oc3ccccc3C3CC(c4ccccc4)=NN32)s1 (stereo unspecified) 12.2 µM, COc1ccc(-c2cc(=O)c3cc(O)ccc3o2)cc1 6.99 µM, CCC(=O)Nc1ccc2oc(-c3ccccc3Br)nc2c1 2.64 µM, CC(=O)Nc1cccc(-c2csc(Nc3cccc(C)n3)n2)c1 1.63 µM, N#C/C(=N/Nc1ccc([N+](=O)[O-])cc1)C(=N)N1CCCCC1 2.61 µM, Cc1nn(C)cc1/C=C/C(=O)c1ccccc1 2.75 µM, CCOc1ccc(/C=N/Nc2ccccn2)cc1 1.01 µM
